Source: PubChem BioAssay AID330 (DTP/NCI, 2004)
Where “and” joins values, the source holds several entries; their conditions need not be identical. Identical values can stand only once. Toxic doses and inconclusive results are not listed. The calls were made as follows: active = survival T/C of 150% or more; inactive = T/C below 125% in these data.

Tested on: P388 leukemia ip, CD2F1 mice, survival T/C
Test: NCI In Vivo Anticancer Drug Screen. Data for tumor model P388 Leukemia (intraperitoneal) in CD2F1 (CDF1) mice
Settings: endpoint: median survival time, higher = longer survival
Outline: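 Mice carrying the transplanted tumor received test compound or vehicle. Survival was recorded in each group, and the value is the treated-group measurement divided by that of the vehicle-treated control group.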

[1] = dose: 50.0 mg/kg/injection, schedule: Q01DX009 (ip), vehicle: Klucel (hydroxypropylcellulose) (HPC)
[2] = dose: 100.0 mg/kg/injection, schedule: Q01DX009 (ip), vehicle: Klucel (hydroxypropylcellulose) (HPC)
[3] = dose: 200.0 mg/kg/injection, schedule: Q01DX009 (ip), vehicle: Klucel (hydroxypropylcellulose) (HPC)
[4] = dose: 50.0 mg/kg/injection, schedule: Q01DX009 (ip), vehicle: saline
[5] = dose: 100.0 mg/kg/injection, schedule: Q01DX009 (ip), vehicle: saline
[6] = dose: 200.0 mg/kg/injection, schedule: Q01DX009 (ip), vehicle: saline
[7] = dose: 50.0 mg/kg/injection, schedule: Q01DX009 (ip), vehicle: saline with Tween-80
[8] = dose: 60.0 mg/kg/injection, schedule: Q01DX005 (ip), vehicle: saline with Tween-80
[9] = dose: 120.0 mg/kg/injection, schedule: Q01DX005 (ip), vehicle: saline with Tween-80
[10] = dose: 240.0 mg/kg/injection, schedule: Q01DX005 (ip), vehicle: saline with Tween-80
[11] = dose: 60.0 mg/kg/injection, schedule: Q01DX005 (ip), vehicle: Klucel (hydroxypropylcellulose) (HPC)
[12] = dose: 120.0 mg/kg/injection, schedule: Q01DX005 (ip), vehicle: Klucel (hydroxypropylcellulose) (HPC)
[13] = dose: 240.0 mg/kg/injection, schedule: Q01DX005 (ip), vehicle: Klucel (hydroxypropylcellulose) (HPC)

Measured: T/C

COc1cc(NC(=O)OCc2cccnc2)cc(OC)c1OC
inactive: dose: 50.0 mg/kg/injection, schedule: Q01DX005 (ip), vehicle: saline with Tween-80 98 % of control | dose: 100.0 mg/kg/injection, schedule: Q01DX005 (ip), vehicle: saline with Tween-80 98 % of control | dose: 200.0 mg/kg/injection, schedule: Q01DX005 (ip), vehicle: saline with Tween-80 93 % of control

CSc1nc(=O)[nH]nc1SCc1ccccc1
inactive: [1] 114 % of control and 120 % of control | [2] 101 % of control and 111 % of control | [3] 108 % of control and 120 % of control

c1ccc(-c2cc(CNc3nc4ccccc4s3)on2)cc1
inactive: [1] 99 % of control | [2] 99 % of control | [3] 99 % of control

CC1=CCC(=O)O1
inactive: dose: 50.0 mg/kg/injection, schedule: Q01DX009 (ip), vehicle: suspension in saline 100 % of control | dose: 100.0 mg/kg/injection, schedule: Q01DX009 (ip), vehicle: suspension in saline 99 % of control and 88 % of control | dose: 200.0 mg/kg/injection, schedule: Q01DX009 (ip), vehicle: suspension in saline 101 % of control and 87 % of control | dose: 400.0 mg/kg/injection, schedule: Q01DX009 (ip), vehicle: suspension in saline 98 % of control and 101 % of control

O=C1OCCN1/N=C\c1ccccc1
inactive: [4] 94 % of control | [5] 87 % of control | [6] 90 % of control

O=C(CC([Se]c1ccccc1)c1ccccc1)c1ccccc1 (stereo not drawn)
inactive: [7] 109 % of control | dose: 100.0 mg/kg/injection, schedule: Q01DX009 (ip), vehicle: saline with Tween-80 109 % of control | dose: 200.0 mg/kg/injection, schedule: Q01DX009 (ip), vehicle: saline with Tween-80 95 % of control

COc1cc2c(cc1OC)C(C#N)(C(c1ccccc1)c1ccccc1)N(C(=O)c1ccccc1)C=C2 (stereo not drawn)
inactive: [8] 100 % of control | [9] 100 % of control | [10] 96 % of control

C(=C\CN(Cc1ccccc1)Cc1ccccc1)/CN(Cc1ccccc1)Cc1ccccc1
inactive: dose: 50.0 mg/kg/injection, schedule: Q04DX003 (ip), vehicle: Klucel (hydroxypropylcellulose) (HPC) 95 % of control | dose: 100.0 mg/kg/injection, schedule: Q04DX003 (ip), vehicle: Klucel (hydroxypropylcellulose) (HPC) 90 % of control | dose: 200.0 mg/kg/injection, schedule: Q04DX003 (ip), vehicle: Klucel (hydroxypropylcellulose) (HPC) 90 % of control

CCN(CC)C(=O)c1c2nc3c(C(=O)N(CC)CC)ccc(C)c3oc-2c(C)c(=O)c1N
inactive: [8] 98 % of control | [9] 88 % of control

CCCCCCC(O)C[N+](=O)[O-] (stereo not drawn)
inactive: dose: 5.56 mg/kg/injection, schedule: Q01DX009 (ip), vehicle: saline with Tween-80 102 % of control | dose: 8.33 mg/kg/injection, schedule: Q01DX009 (ip), vehicle: saline with Tween-80 110 % of control | dose: 12.5 mg/kg/injection, schedule: Q01DX009 (ip), vehicle: saline with Tween-80 117 % of control and 124 % of control | dose: 18.7 mg/kg/injection, schedule: Q01DX009 (ip), vehicle: saline with Tween-80 115 % of control | dose: 25.0 mg/kg/injection, schedule: Q01DX009 (ip), vehicle: saline with Tween-80 111 % of control | [7] 120 % of control

COC(=O)/C=C/c1c2ccccc2cc2ccccc12
inactive: [8] 96 % of control | [9] 96 % of control | [10] 90 % of control

O=C(CC(=O)C(F)(F)F)c1cccs1.O=C(CC(=O)C(F)(F)F)c1cccs1.O=C(CC(=O)C(F)(F)F)c1cccs1.[Eu]
inactive: [4] 113 % of control | [5] 106 % of control | [6] 102 % of control

ClCCn1c(CCl)nc2ccc(Cl)cc21
inactive: dose: 3.12 mg/kg/injection, schedule: Q01DX009 (ip), vehicle: Klucel (hydroxypropylcellulose) (HPC) 93 % of control | dose: 6.25 mg/kg/injection, schedule: Q01DX009 (ip), vehicle: Klucel (hydroxypropylcellulose) (HPC) 101 % of control | dose: 12.5 mg/kg/injection, schedule: Q01DX009 (ip), vehicle: Klucel (hydroxypropylcellulose) (HPC) 100 % of control | dose: 25.0 mg/kg/injection, schedule: Q01DX009 (ip), vehicle: Klucel (hydroxypropylcellulose) (HPC) 100 % of control

CCOc1c(-c2ccccc2)c(=O)n2c3ccccc3n(CC)c2c1C#N
inactive: dose: 7.5 mg/kg/injection, schedule: Q01DX005 (ip), vehicle: saline with Tween-80 86 % of control | dose: 15.0 mg/kg/injection, schedule: Q01DX005 (ip), vehicle: saline with Tween-80 87 % of control | dose: 30.0 mg/kg/injection, schedule: Q01DX005 (ip), vehicle: saline with Tween-80 93 % of control | [9] 88 % of control | [10] 98 % of control and 100 % of control

O=S1(=O)C=C(c2ccccc2)C(c2ccccc2)=C1
inactive: dose: 12.5 mg/kg/injection, schedule: Q04DX003 (ip), vehicle: saline with Tween-80 100 % of control | dose: 25.0 mg/kg/injection, schedule: Q04DX003 (ip), vehicle: saline with Tween-80 100 % of control | dose: 50.0 mg/kg/injection, schedule: Q04DX003 (ip), vehicle: saline with Tween-80 109 % of control

COC(OC)C1CC=CCCC1C(=O)O (stereo not drawn)
inactive: dose: 60.0 mg/kg/injection, schedule: Q01DX005 (ip), vehicle: saline 91 % of control | dose: 120.0 mg/kg/injection, schedule: Q01DX005 (ip), vehicle: saline 107 % of control | dose: 240.0 mg/kg/injection, schedule: Q01DX005 (ip), vehicle: saline 96 % of control

COC(=O)C1C(=O)C(C(=O)OC)C2(C)C(C(=O)OC)C(=O)C(C(=O)OC)C12C (stereo not drawn)
inactive: [11] 103 % of control | [12] 102 % of control | [13] 103 % of control

COC(=O)c1oc2c(c1C(=O)OC)c1ccccc1n2C(C)=O
inactive: dose: 100.0 mg/kg/injection, schedule: Q04DX002 (ip), vehicle: saline with Tween-80 102 % of control | dose: 200.0 mg/kg/injection, schedule: Q04DX002 (ip), vehicle: saline with Tween-80 105 % of control | dose: 400.0 mg/kg/injection, schedule: Q04DX002 (ip), vehicle: saline with Tween-80 100 % of control

CCc1nc2c(Br)c3oc(CC)nc3c(C)c2o1
inactive: [11] 97 % of control | [12] 95 % of control | [13] 91 % of control
